Measured values from patent US20200165312A1, “COSMETIC COMPOSITION FOR IMPROVING SKIN CONDITIONS COMPRISING FUSION PROTEIN INCLUDING SKIN PENETRATION ENHANCING PEPTIDE” (LG HOUSEHOLD & HEALTH CARE LTD., priority 2017, published 2020).
Where a SMILES comes first, the peptide text is derived from it. Where no end group is shown, it is not given here. The star is where a group is joined. Palmitoyl = CCCCCCCCCCCCCCCC(=O)*

Experiments:
[1] = 2 μg in donor chamber, 16 hours, amount in receiver chamber relative to control peptide
[2] = amount present in the porcine skin by HPLC, relative to control peptide
C2C12 cells = assay: Inhibition of muscle contraction: contractions of C2C12 cells co-cultured with neuroblasts; type: cell-based; details: 50 ppm, 2 hours, medium without FBS, counted for 30 seconds; FIG. 1
Method: Then, the number of contractions of the C2C12 cells was measured for 30 second at the initial stage of cell contraction and all of the medium was removed, followed by washing three times with PBS. The cells were reacted for 2 hours in a medium supplemented with 50 ppm of the fusion peptide without the FBS. Then, the number of contractions of the C2C12 cells was measured for 30 seconds to identify the degree of inhibiting muscle contraction.

[3] = test system: human umbilical vein endothelial cells; assay: Endothelial cell proliferation, Cell Counter Kit-8; type: cell-based; details: 100 ng/mL T-VEGF or VEGF, serum-free M199, one day; control = 100
Method: Specifically, human umbilical vein endothelial cells were inoculated onto a 96-well plate and cultured for 24 hours to obtain cultures at a density of 5,000 cells per well. The cultures were washed with PBS and cultured in a serum-free M199 medium for 16 hours. […] The cultures were obtained therefrom and a difference between proliferated amounts of cells was quantitively analyzed using the Cell Counter Kit-8 (Dojindo).
Specifically, human umbilical vein endothelial cells were inoculated onto a 96-well plate and cultured for 24 hours to obtain cultures at a density of 5,000 cells per well. The cultures were washed with PBS and cultured in a serum-free M199 medium for 16 hours. The cells were washed with PBS again and cultured in a serum-free M199 medium supplemented with 100 ng/mL T-Tβ4 or Tβ4 for one day. The cultures were obtained therefrom and a difference between proliferated amounts of cells was quantitively analyzed using the Cell Counter Kit-8 (Dojindo). Here, human umbilical vein endothelial cells cultured in a serum-free M199 medium without T-Tβ4 or Tβ4 were used as a control (Table 22).

dermal papilla cells = assay: Hair follicle stem cell proliferation: dermal papilla cells, Cell Counter Kit-8; type: cell-based; details: 1 ng/mL T-VEGF or VEGF, one day; control = 100
Method: (§1) Specifically, dermal papilla cells were inoculated onto a 96-well plate and cultured for 24 hours to obtain cultures at a density of 6,000 cells per well. The cultures were washed with PBS and cultured in a serum-free DMEM medium for one day. The cells were washed with PBS again and cultured in a serum-free DMEM medium supplemented with 1 ng/mL T-PDGFa or PDGFa for one day. The cultures were obtained therefrom and a difference between proliferated amounts of cells was quantitively analyzed using the Cell Counter Kit-8 (Dojindo). Here, dermal papilla cells cultured in a serum-free DMEM medium without T-PDGFa or PDGFa were used as a control (Table 6).
Specifically, dermal papilla cells were inoculated onto a 96-well plate and cultured for 24 hours to obtain cultures at a density of 6,000 cells per well. The cultures were washed with PBS and cultured in a serum-free DMEM medium for one day. […] The cultures were obtained therefrom and a difference between proliferated amounts of cells was quantitively analyzed using the Cell Counter Kit-8 (Dojindo).
as §1, with “T-IGF-1” for “T-PDGFa”, “IGF-1” for “PDGFa”, “15).” for “6).”
as §1, with “10” for “1”, “T-KGF” for “T-PDGFa”, “KGF” for “PDGFa”, “19).” for “6).”
as §1, with “10” for “1”, “T-Tβ4” for “T-PDGFa”, “Tβ4” for “PDGFa”, “23).” for “6).”

dermal fibroblasts = assay: Hyaluronic acid (HA) production in dermal fibroblasts (ELISA); type: cell-based, human; details: 10 ng/mL T-VEGF or VEGF, two days; control = 100
Method: (§2) Specifically, dermal fibroblasts were inoculated onto a 24-well plate and cultured for 24 hours to obtain cultures having a saturation degree of 70 to 80%. The cultures were washed with PBS and cultured in a serum-free DMEM medium including 10 ng/mL T-PDGFa or PDGFa for two days. A supernatant was obtained therefrom and the amount of hyaluronic acid (HA) produced and released in the culture solution was quantitively analyzed using an ELISA kit (R&D Systems) (Table 5).
as §2, with “The cultures were washed with PBS and cultured in a serum-free DMEM medium including 10 ng/mL T-PDGFa or PDGFa for two days.” left out, “9).” for “5).”

In the case of `CCCCCCCCCCCCCCCC(=O)N[C@@H](Cc1ccc(O)cc1)C(=O)N1CCC[C@H]1C(=O)N[C@@H](Cc1c[nH]c2ccccc12)C(=O)N[C@H](C(=O)N[C@@H](CCC(N)=O)C(=O)N[C@@H](CCCNC(=N)N)C(=O)N[C@@H](Cc1ccccc1)C(=O)N[C@@H](CC(N)=O)C(=O)NCC(=O)N[C@@H](CO)C(=O)N[C@@H](CC(C)C)C(=O)N[C@@H](CC(N)=O)C(=O)N[C@H](C(=O)N[C@@H](Cc1c[nH]cn1)C(=O)N[C@@H](CC(C)C)C(=O)N[C@@H](C)C(=O)N1CCC[C@H]1C(=O)N[C@H](C(=O)N[C@@H](CC(C)C)C(=O)O)[C@@H](C)CC)[C@@H](C)O)[C@@H](C)O` [Fusion protein including [Pal]YPWTQRF] (Palmitoyl-YPWTQRFNGSLNTHLAPIL-OH), the “Penetration enhancement (%)” value [1] is reported as 280 ± 15% and the “Relative penetration (%)” value [2] is reported as 6290 ± 1350%.

For “Acetyl-Glu-Glu-Met-Gln-Arg-Arg (Ac-EEMQRR) [Argireline ™, neurotransmitter release regulating peptide used as control peptide]”, the “number of contractions of the C2C12 cells” value (C2C12 cells) was “reduced”.

With VEGF the “Proliferation (%)” value [3] was 170 ± 10%, the “Proliferation (%)” value (dermal papilla cells) was 340 ± 50% and the “Production (%) of hyaluronic acid (HA)” value (dermal fibroblasts) was 220 ± 20%.
